Reference: patent US11512079B2, “Heterocycle substituted pyridine derivative antifungal agents” (Amplyx Pharmaceuticals, Inc., priority 2017, dated 2022)
Values after ≈ are worked out from the molar mass of the structure shown.

What was measured:
Assay type in all cases: cell-based
[1] = tested on: Aspergillus fumigatus MYA3626; test: In vitro antifungal assay (Example IX), microdilution broth, MEC; conditions: minimum effective concentration (shortening of hyphae), 35° C., 40-48 h, RPMI1640
Method in brief: (§1)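 Read-out is the minimum effective concentration: lowest compound level causing shorter hyphae than in DMSO controls, echinocandin-style. Broth microdilution used conidia or spores harvested from agar plates, cleared of mycelium and clumps, at a final 1-2×10^4 spores/mL in RPMI1640.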

[2] = tested on: Rhizomucor pusillus 46342; test: as above; conditions: minimum effective concentration (shortening of hyphae), 35° C., 40-48 h, RPMI1640
Method in brief: as §1

Candida albicans 90028 = test: In vitro antifungal assay (Example IX), microdilution broth, MIC; conditions: minimum inhibitory concentration (≥50% inhibition), 35° C., 40-48 h, RPMI1640
Method in brief: (§2)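 Yeast inocula (2.5×10^3 cells/mL, RPMI1640) were exposed to twofold compound series reaching 2-0.0019 μg/mL final, per CLSI yeast methodology. Incubation at 35° C. ran 40-48 h for Candida albicans 90028 and 72 h for Cryptococcus neoformans H99. MIC endpoints were confirmed by absorbance at 600 nm.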

[3] = tested on: Cryptococcus neoformans H99; test: as above; conditions: minimum inhibitory concentration (≥50% inhibition), 35° C., 72 h, RPMI1640
Method in brief: as §2

Cryptococcus gattii = test: as above; conditions: minimum inhibitory concentration (≥50% inhibition), 35° C., 72 h (Cryptococcus), RPMI1640
Protocol: Preparation of Fungal Suspension. C. albicans 90028 and C. neoformans H99 strains were streaked from frozen stocks at −80° C. onto Sabouraud Dextrose Agar (SDA) plates. These were allowed to grow for 24 h (C. albicans) and 48 h (C. neoformans) at 35° C. before using them in the assay. 5-6 individual colonies were picked and diluted into sterile water to obtain a fungal suspension. The cell density of the suspension was determined and the culture diluted with RPMI1640 medium to obtain a fungal suspension of 2.5×10^3 cells/mL. The suspension was used in the MIC measurement as described below.
Preparation of Compound Stocks and Intermediate Dilutions: The compounds were weighed and DMSO was added to prepare a 10 mg/mL stock. The solutions were mixed by vortexing and sonication at 37° C. for 5-10 mins. The resulting solutions were sterile filtered using a PTFE filter, and aliquoted (12 μL or as needed) and stored at −20° C. Intermediate compound dilutions were prepared in sterile polypropylene tubes in 100% DMSO. The compound stock solution was first diluted in DMSO to obtain a concentration of […] to 0.19 μg/mL.
MIC/MEC Measurement: 99 μL 1 of the fungal suspension in RPMI1640 prepared as above was added to each well of a 96-well round bottom assay plate. 1 μL of the intermediate compound dilutions (200-0.19 μg/mL) were added to wells of the plate. This led to a 100-fold dilution of the intermediate dilutions resulting in a final compound concentration of 2-0.0019 μg/mL in the plate. 1 μL of DMSO was added to “No drug” control wells. The solutions were mixed by shaking on a plate shaker for 10 mins and plates incubated at 35° C. for 40-48 h (C. albicans, A. fumigatus, R. pusillus) and 72 h (Cryptococcus). […] This was validated by thorough mixing and reading at 600 nm on a microplate reader. The minimum concentration that led to shortening of hyphae as compared to hyphal growth in DMSO control wells was determined as the minimum effective concentration (MEC) for A. fumigatus and R. pusillus (as read for echinocandins). The use of the MIC and MEC endpoints against yeasts and molds, respectively has been described by Pfaller M A, Duncanson F, Messer S A, Moet G J, Jones R N, Castanheira M. Antimicrob Agents Chemother. 2011. 55(11):5155-8. In vitro activity of a novel broad-spectrum antifungal, E1210, tested against Aspergillus spp. determined by CLSI and EUCAST broth microdilution methods. Results are shown in Table 2, and the letters indicate the following ranges in μg/mL: […]

| SMILES | minimal effective concentration [1] [µg/mL] | minimal effective concentration [2] [µg/mL] | MIC (Candida albicans 90028) [µg/mL] | MIC [3] [µg/mL] | MIC (Cryptococcus gattii) [µg/mL] |
| --- | --- | --- | --- | --- | --- |
| N#CCc1ccc(Cc2cc(-c3cccnc3N)on2)cc1 [compound 2, 2-(4-((5-(2-aminopyridin-3-yl)isoxazol-3-yl)methyl)phenyl)acetonitrile] | 0.1 to 1 | > 1 | > 1 | > 1 | – |
| COc1ccc(OCc2ccc(Cc3cc(-c4cccnc4N)on3)cc2)cc1OC [compound 104, 3-(3-(4-((3,4-dimethoxyphenoxy)methyl)benzyl)isoxazol-5-yl)pyridin-2-amine] | > 1 | > 1 | > 1 | > 1 | – |
| COc1ccc(F)cc1OCc1ccc(Cc2cc(-c3cccnc3N)on2)cc1 [compound 192, 3-(3-(4-((5-fluoro-2-methoxyphenoxy)methyl)benzyl)isoxazol-5-yl)pyridin-2-amine] | 0.1 to 1 | > 1 | 0.1 to 1 (≈ 0.247 to 2.47 µM) | – | – |
| Nc1ncccc1-c1cc(Cc2ccc(/C=C/Cc3ccccc3)cc2)no1 [compound 194, (E)-3-(3-(4-(3-phenylprop-1-en-1-yl)benzyl)isoxazol-5-yl)pyridin-2-amine] | 0.1 to 1 | > 1 | > 1 | – | – |
| Nc1ncccc1-c1cc(Cc2ccc(OCc3ccnc(Cl)c3F)nc2)no1 [compound 210, 3-(3-((6-((2-chloro-3-fluoropyridin-4-yl)methoxy)pyridin-3-yl)methyl)isoxazol-5-yl)pyridin-2-amine] | > 1 | > 1 | > 1 | – | – |
| CS(=O)(=O)Nc1cccc(Cc2ccc(Cc3cc(-c4cccnc4N)on3)cc2)c1 [compound 211, N-(3-(4-((5-(2-aminopyridin-3-yl)isoxazol-3-yl)methyl)benzyl)phenyl)methanesulfonamide] | > 1 | > 1 | > 1 | – | – |
| Nc1ncccc1-c1cc(Cc2ccc(OCCCc3ccc(OCc4ccccc4)cc3)nc2)no1 [compound 214, 3-(3-((6-(3-(4-(benzyloxy)phenyl)propoxy)pyridin-3-yl)methyl)isoxazol-5-yl)pyridin-2-amine] | > 1 | > 1 | > 1 | – | – |
| Nc1ncccc1-c1cc(Cc2ccc(OCC(c3ccccc3)c3ccccc3)nc2)no1 [compound 215, 3-(3-((6-(2,2-diphenylethoxy)pyridin-3-yl)methyl)isoxazol-5-yl)pyridin-2-amine] | > 1 | > 1 | > 1 | – | – |
| Cc1c(OCC(F)(F)F)ccnc1COc1ccc(Cc2cc(-c3cccnc3N)on2)cn1 [compound 217, 3-(3-((6-((3-methyl-4-(2,2,2-trifluoroethoxy)pyridin-2-yl)methoxy)pyridin-3-yl)methyl)isoxazol-5-yl)pyridin-2-amine] | > 1 | – | > 1 | > 1 | > 1 |
| Nc1ncccc1-c1cc(Cc2ccc(OCc3cc(Cl)nc(Cl)c3)nc2)no1 [compound 219, 3-(3-((6-((2,6-dichloropyridin-4-yl)methoxy)pyridin-3-yl)methyl)isoxazol-5-yl)pyridin-2-amine] | 0.1 to 1 | – | > 1 | > 1 | > 1 |
| Nc1ncccc1-c1cc(Cc2ccc(N3CCOCC3)nc2)no1 [compound 227, 3-(3-((6-morpholinopyridin-3-yl)methyl)isoxazol-5-yl)pyridin-2-amine] | > 1 | > 1 | > 1 | – | – |
| Nc1ncccc1-c1cc(Cc2ccc(S(=O)(=O)N3CCOCC3)cc2)no1 [compound 228, 3-(3-(4-(morpholinosulfonyl)benzyl)isoxazol-5-yl)pyridin-2-amine] | > 1 | > 1 | > 1 | – | – |
| Nc1ncccc1-c1cc(Cc2ccc(N3CCCC3c3ccccc3)nc2)no1 (stereo not shown) [compound 229, 3-(3-((6-(2-phenylpyrrolidin-1-yl)pyridin-3-yl)methyl)isoxazol-5-yl)pyridin-2-amine] | > 1 | > 1 | > 1 | – | – |
| Nc1ncccc1-c1cc(Cc2ccc(N3CCCCC3)nc2)no1 [compound 230, 3-(3-((6-(piperidin-1-yl)pyridin-3-yl)methyl)isoxazol-5-yl)pyridin-2-amine] | 0.1 to 1 | > 1 | 0.1 to 1 (≈ 0.298 to 2.98 µM) | – | – |
| Nc1ncccc1-c1cc(Cc2ccc(/C=C/c3cccc(F)c3)cc2)no1 [compound 233, (E)-3-(3-(4-(3-fluorostyryl)benzyl)isoxazol-5-yl)pyridin-2-amine] | 0.1 to 1 | – | > 1 | > 1 | > 1 |
| Nc1ncccc1-c1cc(Cc2ccc(Nc3cc(F)cc(F)c3)nc2)no1 [compound 238, 5-((5-(2-aminopyridin-3-yl)isoxazol-3-yl)methyl)-N-(3,5-difluorophenyl)pyridin-2-amine] | > 1 | – | > 1 | 0.1 to 1 (≈ 0.264 to 2.64 µM) | 0.1 to 1 (≈ 0.264 to 2.64 µM) |
| Nc1ncccc1-c1cc(Cc2cnc(OCC3CC3)c(F)c2)no1 [compound 247, 3-(3-((6-(cyclopropylmethoxy)-5-fluoropyridin-3-yl)methyl)isoxazol-5-yl)pyridin-2-amine] | 0.01 to 0.1 | – | 0.01 to 0.1 (≈ 0.0294 to 0.294 µM) | 0.1 to 1 (≈ 0.294 to 2.94 µM) | > 1 |
| Nc1ncccc1-c1cc(Cc2cnc(Oc3cc(F)cc(F)c3)nc2)no1 [compound 248, 3-(3-((2-(3,5-difluorophenoxy)pyrimidin-5-yl)methyl)isoxazol-5-yl)pyridin-2-amine] | 0.1 to 1 | – | > 1 | > 1 | > 1 |
| Nc1ncccc1-c1cc(Cc2cnc(OCc3cccc(F)c3)nc2)no1 [compound 249, 3-(3-((2-((3-fluorobenzyl)oxy)pyrimidin-5-yl)methyl)isoxazol-5-yl)pyridin-2-amine] | 0.01 to 0.1 | – | 0.1 to 1 (≈ 0.265 to 2.65 µM) | 0.1 to 1 (≈ 0.265 to 2.65 µM) | > 1 |
| Nc1ncccc1-c1cc(Cc2cnc(OCc3cccc(F)c3)c(F)c2)no1 [compound 251, 3-(3-((5-fluoro-6-((3-fluorobenzyl)oxy)pyridin-3-yl)methyl)isoxazol-5-yl)pyridin-2-amine] | 0.01 to 0.1 | – | 0.1 to 1 (≈ 0.254 to 2.54 µM) | 0.1 to 1 (≈ 0.254 to 2.54 µM) | 0.1 to 1 (≈ 0.254 to 2.54 µM) |
| Nc1ncccc1-c1cc(Cc2cnc(Oc3cc(F)cc(F)c3)c(F)c2)no1 [compound 252, 3-(3-((6-(3,5-difluorophenoxy)-5-fluoropyridin-3-yl)methyl)isoxazol-5-yl)pyridin-2-amine] | 0.1 to 1 | – | 0.1 to 1 (≈ 0.251 to 2.51 µM) | 0.1 to 1 (≈ 0.251 to 2.51 µM) | 0.1 to 1 (≈ 0.251 to 2.51 µM) |
| Nc1ncccc1-c1cc(Cc2cnc(Oc3ccccc3F)c(F)c2)no1 [compound 254, 3-(3-((5-fluoro-6-(2-fluorophenoxy)pyridin-3-yl)methyl)isoxazol-5-yl)pyridin-2-amine] | 0.01 to 0.1 | – | 0.01 to 0.1 (≈ 0.0263 to 0.263 µM) | 0.1 to 1 (≈ 0.263 to 2.63 µM) | > 1 |
| Nc1ncccc1-c1cc(Cc2cnc(Oc3ccccc3)c(F)c2)no1 [compound 255, 3-(3-((5-fluoro-6-phenoxypyridin-3-yl)methyl)isoxazol-5-yl)pyridin-2-amine] | 0.01 to 0.1 | – | 0.01 to 0.1 (≈ 0.0276 to 0.276 µM) | 0.1 to 1 (≈ 0.276 to 2.76 µM) | > 1 |
